Test results reported in ChEMBL document CHEMBL1201862, “PubChem BioAssay data set” (2004).
Calls of active or inactive are those of the source. For most assays here, no stated cut-off is given here; in the data, actives have a measured EC50 and inactives only a lower limit.

Experiments:
Large T antigen = Large T antigen (Simian virus 40, UniProt P03070); assay type: functional, Betapolyomavirus macacae;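 further: Confirmatory-stage PubChem screen for compounds that inhibit SV40 T antigen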
[1] = biological target: T1, Rac GTPase-activating protein 1 (Homo sapiens, UniProt Q9H0H5); test: blockers of MgcRacGAP-driven Rac1 GTP hydrolysis – biochemical, ADP Hunter fluorescence, primary and confirmatory, confirmation (AID 624330); assay type: functional
T1 sequence (Q9H0H5 whole entry): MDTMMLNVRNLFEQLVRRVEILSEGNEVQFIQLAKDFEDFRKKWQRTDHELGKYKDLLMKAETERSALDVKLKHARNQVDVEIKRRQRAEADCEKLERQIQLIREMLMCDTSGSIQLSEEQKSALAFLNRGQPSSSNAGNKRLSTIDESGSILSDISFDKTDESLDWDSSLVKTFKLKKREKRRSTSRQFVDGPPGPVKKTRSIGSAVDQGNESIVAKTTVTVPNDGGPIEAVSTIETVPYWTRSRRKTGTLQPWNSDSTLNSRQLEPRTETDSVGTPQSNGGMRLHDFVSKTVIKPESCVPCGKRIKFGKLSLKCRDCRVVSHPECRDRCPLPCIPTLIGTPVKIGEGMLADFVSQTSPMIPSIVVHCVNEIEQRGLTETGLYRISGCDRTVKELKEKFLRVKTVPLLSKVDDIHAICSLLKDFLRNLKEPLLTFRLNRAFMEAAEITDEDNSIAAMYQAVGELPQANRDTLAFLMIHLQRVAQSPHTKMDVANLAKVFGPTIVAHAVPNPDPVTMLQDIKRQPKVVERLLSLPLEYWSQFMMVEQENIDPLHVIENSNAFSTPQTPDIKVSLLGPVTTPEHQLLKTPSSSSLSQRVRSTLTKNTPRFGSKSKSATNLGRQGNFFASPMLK

[2] = test system: Streptococcus sp. 'group A'; test: Streptococcus pyogenes SK(-)GAS viability under kanamycin – luminescence, BacTiterGlo, confirmation, counter-screen for streptokinase expression inhibitor project, dose response (AID 1900); assay type: functional, organism-based
Streptokinase A = biological target: T2, Streptokinase A (Streptococcus pyogenes serotype M1, UniProt P10520); test: viability-normalized secreted streptokinase activity reduction – plasminogen activation absorbance, OD405, dose response (AID 1914); assay type: functional, Streptococcus pyogenes M1 GAS;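 further: secreted streptokinase activity via plasminogen activation per viability signal from cell pellet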
T2 sequence (P10520 whole entry): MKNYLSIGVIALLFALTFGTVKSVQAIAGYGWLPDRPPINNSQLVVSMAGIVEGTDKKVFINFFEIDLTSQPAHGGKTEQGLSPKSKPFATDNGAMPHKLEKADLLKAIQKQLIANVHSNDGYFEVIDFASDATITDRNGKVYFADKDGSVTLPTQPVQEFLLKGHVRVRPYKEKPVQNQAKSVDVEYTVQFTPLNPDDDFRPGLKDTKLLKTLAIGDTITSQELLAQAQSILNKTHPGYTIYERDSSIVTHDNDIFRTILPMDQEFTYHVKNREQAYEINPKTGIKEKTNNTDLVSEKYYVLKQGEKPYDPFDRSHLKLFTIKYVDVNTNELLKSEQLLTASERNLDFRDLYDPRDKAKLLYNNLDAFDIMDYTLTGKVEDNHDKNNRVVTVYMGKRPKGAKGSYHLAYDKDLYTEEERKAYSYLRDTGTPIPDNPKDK

Streptococcus = test: GAS UMAA2166 growth inhibition – luminescence, BacTiterGlo, counter-screen for streptokinase expression inhibitor project, dose response (AID 1915); assay type: functional, organism-based;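 further: potency for reduction of bacterial viability or growth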
[3] = biological target: T3, RNA-binding protein pos-1 (Caenorhabditis elegans, UniProt G5EF15); test: disruptors of C. elegans POS-1 RNA interaction – biochemical, fluorescence polarization, dose response (AID 1964);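 further: purified POS-1 fused to maltose binding protein made in E. coli; potency of compounds blocking POS-1 binding to fluorescent RNA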
T3 sequence (G5EF15 whole entry): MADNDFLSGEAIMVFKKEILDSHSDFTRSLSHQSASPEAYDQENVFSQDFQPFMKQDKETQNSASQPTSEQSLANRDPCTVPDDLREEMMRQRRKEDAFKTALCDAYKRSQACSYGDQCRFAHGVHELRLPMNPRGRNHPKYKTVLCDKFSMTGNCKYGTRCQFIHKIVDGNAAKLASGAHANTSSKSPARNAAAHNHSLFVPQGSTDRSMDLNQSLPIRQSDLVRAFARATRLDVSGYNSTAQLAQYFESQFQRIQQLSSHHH

[4] = biological target: T4, Zinc finger protein mex-5 (Caenorhabditis elegans, UniProt Q9XUB2); test: potency of MEX-5 RNA-binding blockers – biochemical, C. elegans, fluorescence polarization, dose response (AID 1960)
T4 sequence (Q9XUB2 whole entry): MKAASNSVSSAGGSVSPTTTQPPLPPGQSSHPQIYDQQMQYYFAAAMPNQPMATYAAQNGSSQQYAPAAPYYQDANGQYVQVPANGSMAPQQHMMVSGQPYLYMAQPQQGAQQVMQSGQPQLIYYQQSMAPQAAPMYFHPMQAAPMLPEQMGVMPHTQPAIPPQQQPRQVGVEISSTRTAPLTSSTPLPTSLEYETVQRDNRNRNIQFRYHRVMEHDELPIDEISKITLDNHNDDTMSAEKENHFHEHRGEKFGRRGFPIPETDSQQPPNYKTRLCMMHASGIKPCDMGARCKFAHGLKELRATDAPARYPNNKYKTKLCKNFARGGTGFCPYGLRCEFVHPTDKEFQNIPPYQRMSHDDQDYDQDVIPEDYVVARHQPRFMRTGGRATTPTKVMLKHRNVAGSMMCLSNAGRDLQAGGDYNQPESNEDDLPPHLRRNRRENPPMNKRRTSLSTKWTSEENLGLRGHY

Cytochrome P450 3A4 = Cytochrome P450 3A4 (Homo sapiens, UniProt P08684); details: Potency;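 further: confirmatory qHTS run detecting inhibitors and substrates of CYP3A4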
[5] = biological target: T5, Heat shock factor protein 1 (Mus musculus, UniProt P38532); test: decrease of HSF1-responsive luciferase luminescence – cell-based, NIH3T3, dose retest, confirmation (AID 2382); assay type: functional;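 further: NIH3T3 fibroblasts with HSF1-driven luciferase reporter stressed by proteasome inhibitor MG132; luminescence from HSF1-driven luciferase expression after 8 hours of MG132 stress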
T5 sequence (P38532 whole entry): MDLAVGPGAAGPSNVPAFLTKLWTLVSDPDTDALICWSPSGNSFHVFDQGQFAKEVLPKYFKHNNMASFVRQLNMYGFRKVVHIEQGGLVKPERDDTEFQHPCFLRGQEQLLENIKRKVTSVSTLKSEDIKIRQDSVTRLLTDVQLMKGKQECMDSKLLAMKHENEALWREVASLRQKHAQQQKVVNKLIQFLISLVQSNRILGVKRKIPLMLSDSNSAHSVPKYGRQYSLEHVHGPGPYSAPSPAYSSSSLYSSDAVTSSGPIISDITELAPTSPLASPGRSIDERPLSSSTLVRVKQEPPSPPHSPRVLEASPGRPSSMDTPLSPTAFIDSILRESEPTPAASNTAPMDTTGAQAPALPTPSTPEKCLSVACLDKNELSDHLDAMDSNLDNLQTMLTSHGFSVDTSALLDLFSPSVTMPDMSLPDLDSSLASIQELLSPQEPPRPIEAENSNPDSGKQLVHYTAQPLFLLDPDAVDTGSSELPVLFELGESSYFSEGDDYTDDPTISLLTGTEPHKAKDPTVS

HEK293 = test: EBV LMP1 TES2 canonical NF-kB signalling blockers – cell-based, HEK293, luciferase, cherry-pick, dose response (AID 588343); assay type: functional; details: Homo sapiens
[6] = biological target: Luciferin 4-monooxygenase (Photinus pyralis, UniProt P08659); test: inhibition of purified Photinus pyralis luciferase – biochemical, luminescence, dose response (AID 1891)
[7] = Luminescence Cell-Based Dose Confirmation HTS to Identify Inhibitors of Platelet Dense Granule Release. [Related pubchem assays: 1663 (Primary HTS), 1678 (Summary of Project)]; assay type: functional

Sequence of Large T antigen (P03070 whole entry): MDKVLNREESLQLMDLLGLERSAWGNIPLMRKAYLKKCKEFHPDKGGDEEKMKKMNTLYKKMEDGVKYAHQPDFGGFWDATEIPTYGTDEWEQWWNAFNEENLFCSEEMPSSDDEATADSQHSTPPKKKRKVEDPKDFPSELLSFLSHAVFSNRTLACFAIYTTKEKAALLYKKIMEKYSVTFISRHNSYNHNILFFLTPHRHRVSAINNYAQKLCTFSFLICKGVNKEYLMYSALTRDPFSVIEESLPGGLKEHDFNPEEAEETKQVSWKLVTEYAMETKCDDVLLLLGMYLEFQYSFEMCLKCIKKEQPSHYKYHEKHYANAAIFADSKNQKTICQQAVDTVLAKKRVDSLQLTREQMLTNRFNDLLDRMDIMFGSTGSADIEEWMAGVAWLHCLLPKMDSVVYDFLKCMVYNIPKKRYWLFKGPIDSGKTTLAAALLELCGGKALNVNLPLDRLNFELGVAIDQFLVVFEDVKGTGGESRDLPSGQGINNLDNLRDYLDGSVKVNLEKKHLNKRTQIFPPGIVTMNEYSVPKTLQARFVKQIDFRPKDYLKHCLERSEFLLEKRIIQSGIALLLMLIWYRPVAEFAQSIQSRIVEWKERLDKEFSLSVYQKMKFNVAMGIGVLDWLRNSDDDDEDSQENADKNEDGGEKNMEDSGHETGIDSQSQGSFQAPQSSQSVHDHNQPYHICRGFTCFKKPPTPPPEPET
Sequence of Cytochrome P450 3A4 (P08684 whole entry): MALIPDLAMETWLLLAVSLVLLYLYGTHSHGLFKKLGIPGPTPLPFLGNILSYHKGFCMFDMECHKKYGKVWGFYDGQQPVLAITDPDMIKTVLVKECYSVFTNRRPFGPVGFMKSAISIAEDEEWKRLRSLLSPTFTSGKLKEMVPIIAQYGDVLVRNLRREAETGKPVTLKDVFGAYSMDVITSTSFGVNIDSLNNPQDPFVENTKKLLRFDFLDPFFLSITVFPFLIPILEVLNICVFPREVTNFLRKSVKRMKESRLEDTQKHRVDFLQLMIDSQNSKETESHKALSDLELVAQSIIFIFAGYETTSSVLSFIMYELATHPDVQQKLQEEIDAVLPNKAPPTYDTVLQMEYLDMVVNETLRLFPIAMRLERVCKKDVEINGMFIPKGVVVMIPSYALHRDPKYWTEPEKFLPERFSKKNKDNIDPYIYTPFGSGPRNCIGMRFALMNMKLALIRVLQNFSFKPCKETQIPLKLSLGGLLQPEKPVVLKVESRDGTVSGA
Sequence of Luciferin 4-monooxygenase (P08659 whole entry): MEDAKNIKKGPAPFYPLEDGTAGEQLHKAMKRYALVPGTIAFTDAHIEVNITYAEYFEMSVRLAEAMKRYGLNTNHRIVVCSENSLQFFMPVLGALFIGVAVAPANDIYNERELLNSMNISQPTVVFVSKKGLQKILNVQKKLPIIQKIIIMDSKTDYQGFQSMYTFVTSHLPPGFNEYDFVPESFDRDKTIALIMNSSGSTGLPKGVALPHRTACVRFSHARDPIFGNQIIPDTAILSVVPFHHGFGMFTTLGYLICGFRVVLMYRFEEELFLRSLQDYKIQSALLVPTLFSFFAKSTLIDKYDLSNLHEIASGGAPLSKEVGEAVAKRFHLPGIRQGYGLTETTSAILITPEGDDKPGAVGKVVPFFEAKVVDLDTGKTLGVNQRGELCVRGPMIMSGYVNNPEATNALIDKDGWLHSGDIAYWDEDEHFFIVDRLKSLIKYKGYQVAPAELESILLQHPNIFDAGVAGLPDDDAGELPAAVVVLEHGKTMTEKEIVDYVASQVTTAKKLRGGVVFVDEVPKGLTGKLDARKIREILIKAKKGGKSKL

Row | Structure (SMILES) | IC50 (Large T antigen) | EC50 [3] | EC50 [4] | further results
1 | CCOc1cc(/C=C2/N=C(C)C(C(=O)OC)=C2O)ccc1O | 5.78 µM (active) | – | – | IC50 [1]: 26.3 µM (active)
2 | CC(=O)O[C@H]1C[C@@]2(C)[C@@H](C[C@@H](O)[C@H]3[C@@]4(C)CC[C@@H](O)[C@@H](C)C4CC[C@@]32C)/C1=C(\CCC=C(C)C)C(=O)O (some centres undefined) | 24.7 µM (active) | – | – | EC50 [2]: 2.26 µM (active); EC50 (Streptokinase A): 1.78 µM (active); EC50 (Streptococcus): 13.7 µM (active)
3 | Cc1nnc(O)nc1Nc1ccc(O)cc1 | 4.52 µM (active) | – | – | –
4 | CCOC(=O)C1Nc2c(F)cc(C)cc2C2C=CCC12 (centres undefined) | – | > 300 µM (not active) | > 300 µM (not active) | –
5 | COC(=O)[C@]1(C)CC[C@@]2(C)CC[C@@]3(C)C4=CCc5c(cc(O)c(O)c5C)[C@]4(C)CC[C@@]3(C)C2C1 (some centres undefined) | – | – | – | AC50 (Cytochrome P450 3A4): 39.8 µM (inconclusive)
6 | COc1ccc(C(=O)NNC(=O)c2cnccn2)cc1[N+](=O)[O-] | – | 25.3 µM (active) | 1.72 µM (active) | EC50 [5]: > 195 µM (not active)
7 | O=C(CSc1nc2ccccc2c(=O)n1CCCN1CCOCC1)Nc1ccc(Br)cc1 | – | – | – | AC50 (HEK293): > 350 µM (inactive)
8 | COc1cccc(/C=N/Nc2ncnc(N)c2[N+](=O)[O-])c1OC | – | 18.4 µM (active) | > 300 µM (inconclusive) | AC50 (HEK293): 3.91 µM (active)
9 | O=c1oc2ccccc2c(O)c1/C=N/c1ccccn1 | – | – | – | EC50 [6]: > 112 µM (not active); EC50 [7]: > 112 µM (not active); AC50 (HEK293): 162 µM (active)
10 | COc1ccc(C2C(C#N)=C(/N=C/N3CCN(C)CC3)OC3=C2C(=O)CC(C)(C)C3)cc1OC (centres undefined) | – | > 300 µM (not active) | > 300 µM (not active) | –
11 | COc1ccc(/C=N/NC(=O)CCc2nnc(O)nc2O)cc1O | 28.9 µM (active) | – | – | –
12 | CCCCNC(=O)C(c1ccc(OCC(=O)OC)c(C(=O)OC)c1)N(CCC1=CCCCC1)C(=O)CCCCCN1C(=O)NC(c2ccc(-c3ccccc3)cc2)C(C(=O)OCc2ccccc2)=C1C (centres undefined) | – | – | – | AC50 (Cytochrome P450 3A4): 2.51 µM (inconclusive)
